Target: T1, BRD7 (Homo sapiens, UniProt Q9NPI1)
T1 construct: Western blot analysis of BRD9 and BRD7 levels after treatment of HeLa cells; endogenous in cells; host or cells: HeLa
T1 sequence (Q9NPI1 1-651): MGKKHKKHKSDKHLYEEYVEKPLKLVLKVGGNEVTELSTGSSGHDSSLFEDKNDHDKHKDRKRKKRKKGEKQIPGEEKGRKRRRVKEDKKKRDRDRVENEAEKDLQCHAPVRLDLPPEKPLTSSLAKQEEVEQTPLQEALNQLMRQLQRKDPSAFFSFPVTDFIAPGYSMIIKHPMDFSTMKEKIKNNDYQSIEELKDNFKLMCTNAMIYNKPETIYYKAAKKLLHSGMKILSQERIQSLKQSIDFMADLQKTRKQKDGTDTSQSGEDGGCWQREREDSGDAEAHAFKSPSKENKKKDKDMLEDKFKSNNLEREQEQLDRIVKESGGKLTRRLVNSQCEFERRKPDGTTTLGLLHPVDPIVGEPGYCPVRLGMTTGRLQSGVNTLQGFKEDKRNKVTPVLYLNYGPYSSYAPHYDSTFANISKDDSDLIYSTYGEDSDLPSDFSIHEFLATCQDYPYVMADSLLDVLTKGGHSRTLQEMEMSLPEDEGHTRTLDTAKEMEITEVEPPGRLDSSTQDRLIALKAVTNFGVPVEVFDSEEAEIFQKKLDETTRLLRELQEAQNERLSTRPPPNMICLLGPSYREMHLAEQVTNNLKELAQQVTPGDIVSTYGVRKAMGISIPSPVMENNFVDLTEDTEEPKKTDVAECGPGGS
Assay: Western blot of BRD7 levels in RI-1 cells after compound treatment
Type: cell-based
Settings: for BRD7 degradation: 4 h
Procedure: HeLa and Hek293 cells were seeded at either 0.3 × 10^6 or 0.5 × 10^6 cells per well in 6-well plate in 2 mL of medium. At 80% confluency, cells were treated with compounds at the desired concentration, with final DMSO concentration of 0.1% v/v. Cells were incubated at 37 °C and 5% of CO2 for the desired time before harvesting. For protein extraction from adherent cells, cells were washed twice with DPBS (Gibco) and lysed with RIPA buffer (Sigma-Aldrich), supplemented with cOmplete Mini EDTA-free protease inhibitor cocktail (Roche). Insoluble material was removed by centrifugation at 14 000 rpm for 15 min at 4 °C. Supernatant was collected and protein concentration was quantified by Bradford assay (Thermo Scientific no. 23200, mean of two replicates). For RI-1 cells, (1–1.5) × 10^6 cells/mL were seeded in 6-well plate in 2 mL of medium. The day after, cells were treated with compounds at the desired concentration, with final DMSO concentration of 0.1% v/v. Before harvesting, cells were incubated at 37 °C and 5% CO2 for the desired time. Cells were washed twice with DPBS (Gibco) and lysed with RIPA buffer (Sigma-Aldrich), supplemented with cOmplete Mini EDTA-free protease inhibitor cocktail (Roche). Lysates were sonicated (10 s) and centrifuged at 14 000 rpm for 20 min at 4 °C. Supernatant was collected, and protein concentration was quantified by Bradford assay (mean of two replicates). For EOL-1 and A-204 cell line, 20 000 cells were seeded in 300 μL per well in a 24-well plate and incubated at 37 °C overnight. Compounds were added from DMSO stock solution using a digital dispenser D300 (Tecan), normalizing for added DMSO, and cells were incubated at 37 °C for 18 h. Medium was removed, and cells were washed with PBS and lysed in 80 μL of lysis buffer (1% Triton, 350 mM KCl, 10 mM Tris, pH 7,4, phosphatase-protease inhibitor cocktail (Thermo Scientific no. 1861281), 10 mM DTT, Benzonase 0.5 μL/ml (Novagen no. 70746 10KU, 25 U/μL)) for 30 min on ice before insoluble debris was pelleted by centrifugation.
Cells were seeded in 6-well plates with 5 × 10^5 cells per well in 2 mL of complete medium to aim for 80% confluence on the day of treatment. At time zero, ML4924 was added at final concentration of 3 μM with 0.1% v/v of DMSO. DMSO was added to the remaining wells in order to match concentration of vehicle in all wells. […]
Proteins were resolved by SDS–PAGE on NuPage 4–12% Bis-Tris Midi Gel (Invitrogen) and transferred to Amersham Protran 0.45 NC nitrocellulose membrane (GE Healthcare) using wet transfer. […] ImageJ software was used for band quantification, and the last was reported as relative amount as ratio of each protein band relative to the lane’s loading control. […]

| SMILES | BRD7 degradation (100 nM) | decrease of BRD7 level (100 nM, 30 min) | concentration window of maximal protein degradation of BRD7 (2 and 8 h) |
| --- | --- | --- | --- |
| COc1cc(-c2cn(C)c(=O)c3cnccc23)cc(OC)c1CN1CCN(CCCCCOc2cc(-c3scnc3C)ccc2CNC(=O)[C@@H]2C[C@H](O)CN2C(=O)[C@@H](NC(=O)C2(F)CC2)C(C)(C)C)CC1 [cisVZ185] | no degradation |  |  |
| COc1cc(-c2cn(C)c(=O)c3cnccc23)cc(OC)c1CN1CCN(CCCCCOc2cc(-c3scnc3C)ccc2CNC(=O)[C@@H]2C[C@@H](O)CN2C(=O)[C@@H](NC(=O)C2(F)CC2)C(C)(C)C)CC1 [Compound 51, (2S,4R)-N-(2-((5-(4-(2,6-Dimethoxy-4-(2-methyl-1-oxo-1,2-dihydro-2,7-naphthyridin-4-yl)benzyl)piperazin-1-yl)pentyl)oxy)-4-(4-methylthiazol-5-yl)benzyl)-1-((S)-2-(1-fluorocyclopropane-1-carboxamido)-3,3-dimethylbutanoyl)-4-hydroxypyrrolidine-2-carboxamide] | more than 90% | more than 50% | 0.1 to 1 µM |

From publication PMC6348446 (Journal of Medicinal Chemistry, 2018)
